According to patent publication US6630489B1, “Quinoline derivatives as tyrosine kinase inhibitors” (Astrazeneca AB, priority 1999, dated 2003):

Legend:
p56^lck enzyme = biological target: T1, p56^lck enzyme (Homo sapiens, UniProt P06239); assay: In vitro enzyme assay, Test (a): inhibition of p56lck phosphorylation of a tyrosine-containing polypeptide substrate (Elisa); type: biochemical; conditions: inhibition of phosphorylation by p56lck
T1 construct: fused on or other part: N-terminal 6-His tag
Description: (a) In vitro Enzyme Assay
The ability of test compounds to inhibit phosphorylation by the enzyme p56^lck of a tyrosine-containing polypeptide substrate was assessed using a conventional Elisa assay.
The following conventional procedure was used to obtain p56^lck enzyme. An EcoR1/Not1 fragment containing the entire coding sequence of p56^lck was generated by the technique of polymerase chain reaction (PCR) from Incyte clone No. 2829606. A 6-His tag was added to the sequence at the N-terminus during the PCR stage. Conventional sequence analysis identified a number of changes compared to the published sequence and these were found also to have been present in the original Incyte template. To achieve expression of the enzyme, the PCR fragment was inserted downstream of the polyhedrin promotor of pFASTBAC1 (Life Technologies Limited, Paisley, UK, Catalogue No. 10360-014). A recombinant Baculovirus was constructed using the Bac-to-Bac system (Life Technologies Limited). High Five insect cells (Invitrogen BV, PO Box 2312, 9704 CH Groningen, The Netherlands, Catalogue No. B855-02) were infected with the recombinant Baculovirus at a multiplicity of infection of 1 and incubated for 48 hours. The cells were harvested. […]

[1] = tested on: human peripheral blood mononuclear cells (T cell proliferation); assay: In vitro T cell proliferation assay, Test (b)(i): T cell receptor stimulation (anti-CD3 antibody); type: cell-based; conditions: human PBMC, T cell receptor stimulation with anti-CD3 antibody, tritiated thymidine
Description: (§1) (b) In vitro T Cell Proliferation Assays
(§2) The ability of test compounds to inhibit T cell proliferation was assessed by using human peripheral blood mononuclear cells and stimulation of the T cells by way of the T cell receptor or other than by way of the T cell receptor.
Peripheral blood mononuclear cells (PBMC) were isolated from heparinised (10 units/ml heparin) human blood by density centrifugation (Lymphoprep™; Nycomed) spinning initially at 2000 rpm at ambient temperature for 20 minutes. Cells at the interphase were transferred to clean tubes, diluted 1:1 with RPMI 1640 medium (Gibco) and spun at 2000 rpm at ambient temperature for 10 minutes. The cell pellet was resuspended in RPMI 1640 medium and spun at 1400 rpm at ambient temperature for 10 minutes. […]
(§3) The extent of inhibition of T cell proliferation at a range of concentrations of each test compound was determined and an IC50 value was calculated. […]
Aliquots (50 μl) of the T cell receptor stimulatory anti-CD3 antibody (Pharmingen Catalogue No. 30100D; 40 ng/ml in assay medium) were added to each well and the cells were incubated for 24 hours at 37° C. in a humidified (5%CO2/95% air) incubator. […] The cells were harvested onto a filter mat and radioactivity was counted using a Wallac 1450 Microbeta Plus liquid scintillation counter.

[2] = tested on: human peripheral blood mononuclear cells (T cell proliferation); assay: In vitro T cell proliferation assay, Test (b)(ii): non T cell receptor stimulation (PMA and Ionomycin); type: cell-based; conditions: human PBMC, stimulation with PMA and Ionomycin, tritiated thymidine
Description: as §1, §2
Peripheral blood mononuclear cells (PBMC) were isolated from heparinised (10 units/ml heparin) human blood by density centrifugation (Lymphoprep™; Nycomed) spinning initially at 2000 rpm at ambient temperature for 20 minutes. Cells at the interphase were transferred to clean tubes, diluted 1:1 with RPMI 1640 medium (Gibco) and spun at 2000 rpm at ambient temperature for 10 minutes. The cell pellet was resuspended in RPMI 1640 medium and spun at 1400 rpm at ambient temperature for 10 minutes. The cell pellet was resuspended in RPMI 1640 medium and spun at 900 rpm at ambient temperature for 10 minutes to remove platelets. […]
as §3
Aliquots (50 μl) of a mixture of the cell stimulants PMA (phorbol-12-myristate-13-acetate, Sigma Catalogue No. P8139; 40 ng/ml) and Ionomycin (Sigma Catalogue No. I0684; 1.2 μM) were added to each well and the cells were incubated and analysed as described in paragraph (b)(i).

T1 sequence (P06239 whole entry, the tested form may be a part): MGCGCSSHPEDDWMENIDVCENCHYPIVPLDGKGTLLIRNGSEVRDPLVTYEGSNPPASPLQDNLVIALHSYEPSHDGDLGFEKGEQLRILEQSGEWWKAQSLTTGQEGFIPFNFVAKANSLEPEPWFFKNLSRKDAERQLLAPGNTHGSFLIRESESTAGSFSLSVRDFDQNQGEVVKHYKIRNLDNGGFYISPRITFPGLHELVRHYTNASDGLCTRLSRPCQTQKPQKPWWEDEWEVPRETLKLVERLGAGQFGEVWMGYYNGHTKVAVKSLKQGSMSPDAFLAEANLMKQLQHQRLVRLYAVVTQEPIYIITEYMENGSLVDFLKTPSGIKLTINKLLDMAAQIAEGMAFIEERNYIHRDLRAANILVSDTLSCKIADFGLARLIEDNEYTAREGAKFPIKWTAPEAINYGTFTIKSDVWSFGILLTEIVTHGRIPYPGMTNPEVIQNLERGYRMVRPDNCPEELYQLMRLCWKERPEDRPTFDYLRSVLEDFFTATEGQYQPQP

IC50 (p56^lck enzyme): ~30 nM
SMILES: COc1cc2nccc(Oc3ccc(Cl)cc3F)c2cc1C(=O)NCCCN1CCOCC1 [Example 1, 4-(4-chloro-2-fluorophenoxy)-7-methoxy-N-(3-morpholinopropyl)quinoline-6-carboxamide]
IC50 [1]: ~700 nM
IC50 [2]: ~18 µM
